# Measurements from article PMC11178787, “Development of a natural product optimization strategy for inhibitors against MraY, a promising antibacterial target” (Nature Communications, 2024).
# Columns and labels:
# [1] = molecular target: MraYSA (S. aureus MraY) (Staphylococcus aureus, UniProt Q2FZ93); test: fluorescence assay of dansylated lipid I formation; format: biochemical
# [2] = system: T1, A. baumannii ATCC 19606; test: microbe, parasite or virus in culture; conditions: Acinetobacter baumannii, ATCC19606
# T1 construct: ATCC 19606
# Protocol: (§1) MICs were determined by a microdilution broth method as recommended by the CLSI with MHB-II. For MICs of stable analogues, a 2-fold dilution of each compound was prepared in DMSO at 100-fold of the final concentration. The strains were inoculated with 5 × 10^5 cfu/mL in 96-well plates (each 100 μL/well), and 1 μL of DMSO solutions of the samples were added (contained less than 1% DMSO). The plates were incubated at 37 °C for 18 h and then MICs were determined. MICs of stable analogues in Table 1 were the highest value in three trials. MICs in Supplementary Table 1 were determined in one trial.  Fig. 2 Results of biological evaluations of hydrazone library. a General structures of hydrazine fragment moiety are shown. Each hydrazine class are represented by different colours (green; BZ, cyan; PA, grey; AC, yellow; AA, orange; LA). b–h MraY inhibitory activity and antibacterial activity of the hydrazone library. The bar graphs show the relative enzyme activity with DMSO as 100% when the compound is treated at given concentration (b,c; TUN at 100 nM, d,e; MRY at 10 nM, f.g; MRD at 100 nM, h; CAP at 1000 nM. n = 1), with the lower bars indicating higher inhibitory activity. The colour of the bars corresponds to Fig. 2a. […] Data of control compounds (van: vancomycin, col: colistin) are shown left column in each panel. E. faecium ATCC 35667, S. aureus ATCC 29213, P. aeruginosa ATCC 27853, K. pneumoniae ATCC 13883, E. cloacae ATCC 13047, A. baumannii ATCC 19606, E. coli ATCC 25922.
# [3] = system: T2, E. cloacae ATCC 13047; test: microbe, parasite or virus in culture; conditions: Enterobacter cloacae, ATCC13047
# T2 construct: ATCC 13047
# Protocol: as §1
# [4] = system: T3, E. coli ATCC 25922; test: microbe, parasite or virus in culture; conditions: Escherichia coli, ATCC25922
# T3 construct: ATCC 25922
# Protocol: as §1
# [5] = system: T4, E. faecium ATCC 35667; test: microbe, parasite or virus in culture; conditions: Enterococcus faecium, ATCC35667
# T4 construct: ATCC 35667
# Protocol: as §1
# [6] = system: T5, K. pneumoniae ATCC 13883; test: microbe, parasite or virus in culture; conditions: Klebsiella pneumoniae, ATCC13883
# T5 construct: ATCC 13883
# Protocol: as §1
# [7] = system: T6, P. aeruginosa ATCC 27853; test: microbe, parasite or virus in culture; conditions: Pseudomonas aeruginosa, ATCC27853
# T6 construct: ATCC 27853
# Protocol: as §1
# [8] = system: T7, S. aureus ATCC 29213; test: microbe, parasite or virus in culture; conditions: Staphylococcus aureus, ATCC29213
# T7 construct: ATCC 29213
# Protocol: as §1
# Chain of MraYSA (S. aureus MraY) (Q2FZ93 whole entry): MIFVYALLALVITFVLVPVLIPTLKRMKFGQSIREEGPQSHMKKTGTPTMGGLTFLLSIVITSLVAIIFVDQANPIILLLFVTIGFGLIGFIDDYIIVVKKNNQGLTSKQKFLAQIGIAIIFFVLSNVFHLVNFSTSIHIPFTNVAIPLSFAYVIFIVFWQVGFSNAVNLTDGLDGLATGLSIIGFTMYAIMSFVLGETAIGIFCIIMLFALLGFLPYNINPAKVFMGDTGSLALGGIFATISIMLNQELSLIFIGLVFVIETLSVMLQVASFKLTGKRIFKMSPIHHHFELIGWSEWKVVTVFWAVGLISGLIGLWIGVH
smiles,measurement,setting,value
CC(C)(C)c1ccc(C(=O)N/N=C/c2ccc(CN[C@H](C(=O)O)[C@H](O[C@@H]3O[C@H](CN)[C@@H](O)[C@H]3O)[C@H]3O[C@@H](n4ccc(=O)[nH]c4=O)[C@H](O)[C@@H]3O)cc2)cc1 [MRYp-BZ2],IC50,[1],2.4 nM
CC[C@H]1OC(=O)[C@H](C)[C@@H](O[C@H]2C[C@@](C)(OC)[C@@H](O)[C@H](C)O2)[C@H](C)[C@@H](O[C@@H]2O[C@H](C)C[C@H](N(C)C)[C@H]2O)[C@](C)(O)C[C@@H](C)CN(C)[C@H](C)[C@@H](O)[C@]1(C)O [azithromycin],MIC,[2],50 µM
same,MIC,[3],50 µM
same,MIC,[4],5 µM
same,MIC,[5],< 0.5 µM
same,MIC,[6],5 µM
same,MIC,[7],50 µM
same,MIC,[8],5 µM
CC[C@H]1OC(=O)[C@H](C)[C@@H](O[C@H]2C[C@@](C)(OC)[C@@H](O)[C@H](C)O2)[C@H](C)[C@@H](O[C@@H]2O[C@H](C)C[C@H](N(C)C)[C@H]2O)[C@](C)(O)C[C@@H](C)C(=O)[C@H](C)[C@@H](O)[C@]1(C)O [erythromycin],MIC,[2],50 µM
same,MIC,[3],> 50 µM
same,MIC,[4],50 µM
same,MIC,[5],< 0.5 µM
same,MIC,[6],> 50 µM
same,MIC,[7],> 50 µM
same,MIC,[8],< 0.5 µM
CO[C@H]1/C=C/O[C@@]2(C)Oc3c(C)c(O)c4c(O)c(c(/C=N/N5CCN(C)CC5)c(O)c4c3C2=O)NC(=O)/C(C)=C\C=C\[C@H](C)[C@H](O)[C@@H](C)[C@@H](O)[C@@H](C)[C@H](OC(C)=O)[C@@H]1C [rifampicin],MIC,[2],5 µM
same,MIC,[3],50 µM
same,MIC,[4],5 µM
same,MIC,[5],5 µM
same,MIC,[6],50 µM
same,MIC,[7],50 µM
same,MIC,[8],< 0.5 µM
CN[C@@H]1[C@H](O[C@H]2[C@H](O[C@H]3[C@H](O)[C@@H](O)[C@H](N=C(N)N)[C@@H](O)[C@@H]3N=C(N)N)O[C@@H](C)[C@]2(O)C=O)O[C@@H](CO)[C@H](O)[C@H]1O [streptomycin],MIC,[2],> 50 µM
same,MIC,[3],> 50 µM
same,MIC,[4],50 µM
same,MIC,[5],50 µM
same,MIC,[6],50 µM
same,MIC,[7],50 µM
same,MIC,[8],50 µM
